Some test systems named below: COLO 205 colon; HOP-62 NSCLC; HOP-92 NSCLC; MDA-MB-231 breast; MOLT-4 leukemia; NCI-H226 lung; OVCAR-3 ovarian; OVCAR-8 ovarian; SF-268 CNS; SK-OV-3 ovarian.
Common to all, as to test: inhibition of tumour cell growth, NCI panel, 48 h

The results in this text go back to PubChem BioAssay (NCI).

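These data come from cells grown in 96-well plates and exposed to compound for 48 hours at five concentrations. TGI marks complete inhibition of growth.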

Regarding `CC(C)c1cc(C(C)C)c(B(c2ccccc2)c2ccccc2)c(C(C)C)c1Br`, the TGI in the assay with COLO 205 colon, in the assay on HOP-62 NSCLC, in the assay on HOP-92 NSCLC, in the assay on MDA-MB-231 breast, in the assay on MOLT-4 leukemia and in the assay on NCI-H226 lung was above 100 µM in each case. In addition, the TGI in the assay with OVCAR-3 ovarian, in the assay with OVCAR-8 ovarian, in the assay on SF-268 CNS and in the assay on SK-OV-3 ovarian was above 100 µM throughout.
With `Oc1[nH]c2ccccc2c1N=NC(=S)NCc1ccccn1`, the TGI was 13.6 µM in the assay with COLO 205 colon; 6.87 µM with HOP-62 NSCLC; 18.1 µM in the assay on HOP-92 NSCLC; 20.8 µM in the assay on MDA-MB-231 breast; 4.9 µM in the assay on MOLT-4 leukemia; 10.5 µM in the assay with NCI-H226 lung. For the same compound, the TGI is 15.3 µM in the assay with OVCAR-3 ovarian, 26.7 µM with OVCAR-8 ovarian, 3.84 µM with SF-268 CNS and 13.8 µM with SK-OV-3 ovarian.
On to `CC(C)(CO)Nc1c(O)c2c(c(O)c1Cl)C(=O)C=CC2=O`, for which the TGI came to 2.56 µM in the assay with COLO 205 colon; 2.95 µM in the assay with HOP-62 NSCLC; 3.3 µM with HOP-92 NSCLC; 3.15 µM in the assay on MDA-MB-231 breast; 3.3 µM with MOLT-4 leukemia; 4.26 µM in the assay on NCI-H226 lung. Moreover, the TGI stood at 2.9 µM with OVCAR-3 ovarian, 2.71 µM with OVCAR-8 ovarian, 6.03 µM with SF-268 CNS and 2.91 µM in the assay on SK-OV-3 ovarian.
Turning to `C/C(=N/NC(=O)c1ccccc1Nc1ccccc1C(=O)N/N=C(\C)c1ccc(C)cc1)c1ccc(C)cc1`, the TGI with COLO 205 colon, in the assay on HOP-62 NSCLC, with HOP-92 NSCLC, in the assay on MDA-MB-231 breast, in the assay with MOLT-4 leukemia and in the assay on NCI-H226 lung was above 100 µM each time. For the same compound, the TGI in the assay on OVCAR-3 ovarian, in the assay on OVCAR-8 ovarian, in the assay on SF-268 CNS and in the assay with SK-OV-3 ovarian was above 100 µM in each case.
With `O=c1[nH]c(=O)c2c([nH]1)[nH]c1ccccc12`, the TGI in the assay with COLO 205 colon, with HOP-62 NSCLC, in the assay with HOP-92 NSCLC, in the assay on MDA-MB-231 breast, in the assay with MOLT-4 leukemia and in the assay on NCI-H226 lung was above 100 µM in each case. The TGI in the assay on OVCAR-3 ovarian, in the assay with OVCAR-8 ovarian, with SF-268 CNS and in the assay on SK-OV-3 ovarian was above 100 µM in each case.
Take `CC1=NNC(N)=N/C1=C\C(Sc1ccc(Cl)cc1)c1ccc(Cl)cc1Cl` (configuration not stated): the TGI is 50.4 µM in the assay on COLO 205 colon; 57.8 µM with HOP-62 NSCLC; above 50.5 µM with HOP-92 NSCLC; above 52.3 µM in the assay on MDA-MB-231 breast; above 100 µM in the assay on MOLT-4 leukemia; 36.2 µM in the assay with NCI-H226 lung. The results for the TGI in the assay with OVCAR-8 ovarian, in the assay on SF-268 CNS and with SK-OV-3 ovarian were 31.7 µM, 33.2 µM and 41.9 µM, respectively.
For the compound `COc1ccc(C2CCc3c(cnc4nc(N)nc(N)c34)C2)cc1` (configuration not stated), the TGI in the assay on COLO 205 colon is above 100 µM; in the assay with HOP-62 NSCLC, 65 µM; with HOP-92 NSCLC, 12.3 µM; in the assay with MDA-MB-231 breast it was above 100 µM; in the assay on MOLT-4 leukemia it was above 100 µM; in the assay with NCI-H226 lung, above 100 µM. Also, the TGI in the assay with OVCAR-3 ovarian is above 100 µM; in the assay on OVCAR-8 ovarian, above 100 µM; in the assay on SF-268 CNS, above 100 µM; in the assay on SK-OV-3 ovarian, 50.1 µM.
With `N#CC(NNC(=O)c1c(Cl)c(Cl)c(Cl)c(Cl)c1-c1nc2ccc(C(=O)c3ccccc3)cc2[nH]1)c1cccc(Oc2ccccc2)c1` (configuration not stated), the TGI in the assay with COLO 205 colon is 46.1 µM; in the assay on HOP-62 NSCLC, 70.2 µM; with HOP-92 NSCLC, 48.3 µM; in the assay on MDA-MB-231 breast, 45.2 µM; in the assay on MOLT-4 leukemia, above 100 µM; in the assay with NCI-H226 lung, 53.1 µM. Besides, the TGI in the assay on OVCAR-3 ovarian, in the assay on OVCAR-8 ovarian and with SK-OV-3 ovarian was above 100 µM in each case.
Turning to `Nc1nc(Cl)cc(NCC2CC(O)(CO)C2)n1` (configuration not stated), the TGI in the assay on COLO 205 colon, in the assay on HOP-62 NSCLC, in the assay with HOP-92 NSCLC, in the assay with MDA-MB-231 breast, with MOLT-4 leukemia and in the assay with NCI-H226 lung was above 100 µM each time. For the same compound, the TGI in the assay on OVCAR-3 ovarian, in the assay on OVCAR-8 ovarian, in the assay with SF-268 CNS and with SK-OV-3 ovarian was above 100 µM in each case.
`Clc1ccc(C2=NNC(c3cccc(Cl)c3)C2)cc1` (configuration not stated): the TGI is 29.3 µM in the assay with COLO 205 colon; above 100 µM in the assay on HOP-62 NSCLC; 38.2 µM in the assay on HOP-92 NSCLC; 55.1 µM with MDA-MB-231 breast; above 100 µM with MOLT-4 leukemia; above 100 µM in the assay on NCI-H226 lung. Moreover, the TGI in the assay with OVCAR-3 ovarian was above 100 µM; in the assay on SF-268 CNS it was above 100 µM; in the assay on SK-OV-3 ovarian, 78.1 µM.
Regarding `CN1CCN(C2CC(=O)c3c(Cl)sc(Cl)c32)CC1` (configuration not stated), the TGI in the assay with COLO 205 colon is above 53.4 µM; in the assay on HOP-62 NSCLC, 42.6 µM; in the assay with HOP-92 NSCLC, above 27 µM; with MDA-MB-231 breast, 48 µM; in the assay with MOLT-4 leukemia it was above 51.9 µM; in the assay with NCI-H226 lung, above 65.3 µM. Besides, the TGI in the assay with OVCAR-3 ovarian is 38.7 µM; with OVCAR-8 ovarian, above 21.3 µM; in the assay with SF-268 CNS, above 31.1 µM; in the assay with SK-OV-3 ovarian it was above 90 µM.
Turning to `COC1OC(=O)C(OC)C(OC)C1OC` (configuration not stated), the TGI in the assay on COLO 205 colon, in the assay on HOP-62 NSCLC, in the assay with HOP-92 NSCLC, in the assay with MDA-MB-231 breast, in the assay with MOLT-4 leukemia and in the assay on NCI-H226 lung was above 100 µM each time. Further, the TGI in the assay with OVCAR-3 ovarian, in the assay on OVCAR-8 ovarian, with SF-268 CNS and with SK-OV-3 ovarian was above 100 µM in each case.
In the case of `O=C(O)CCC(NC(=O)/C(=C/c1ccccc1)NC(=O)c1ccccc1)C(=O)O` (configuration not stated), the TGI with COLO 205 colon, with HOP-62 NSCLC, in the assay on HOP-92 NSCLC, with MDA-MB-231 breast, in the assay with MOLT-4 leukemia and in the assay with NCI-H226 lung was above 100 µM each time. Also, the TGI in the assay with OVCAR-3 ovarian, with OVCAR-8 ovarian, in the assay on SF-268 CNS and in the assay with SK-OV-3 ovarian was above 100 µM each time.
